The test system of one series is Gram-negative rods. Description: Antibacterial activity against Gram-negative rods with or without PAβN (text summaries). The settings on record: Gram-negative rods. The series is classed as cell-based. Here is the method: Direct antimicrobial activity was determined against the following standard strains: (1) Gram-positive cocci: methicillin-sensitive Staphylococcus aureus ATCC 6538P (MSSA), methicillin-resistant S. aureus subsp. aureus ATCC 43300 (MRSA), S. epidermidis ATCC 12228, Enterococcus faecium ATCC 6057, E. faecalis ATCC 29212, Bacillus subtilis ATCC 6633; (2) Gram-negative bacteria from Enterobacteriales order: Klebsiella pneumoniae ATCC 13883, Escherichia coli ATCC 25922, Enterobacter cloacae DSM 6234, Proteus mirabilis ATCC 12453, Serratia marcescens ATCC 13880; (3) Gram-negative non-fermentative rods: Acinetobacter baumannii ATCC 19606, Pseudomonas aeruginosa ATCC 27853, Stenotrophomonas maltophilia ATCC 12714, S. maltophilia ATCC 13637, Burkholderia cepacia ATCC 25416, Bordetella bronchiseptica ATCC 4617; (4) yeasts: Candida albicans ATCC 90028, C. krusei ATCC 6258, C. parapsilosis ATCC 22019, C. tropicalis (Castellani) Berkhout ATCC 750, C. tropicalis IBA 171, C. guilliermondii IBA 155, and Saccharomyces cerevisiae ATCC 9763. Moreover, 5 clinical strains of methicillin-resistant S. aureus were also included: NMI 664 K, NMI 1576 K, NMI 1712 K, NMI 1991 K, and NMI 2541 K. All strains were stored at −80 °C. Prior to testing, each bacterial strain was subcultured twice on tryptic soy agar TSA (bioMerieux) medium and yeast strains on Sabouraud dextrose agar (bioMerieux) for 24–48 h at 30 °C to ensure viability. The antimicrobial activity was evaluated as previously described[26] by the disc-diffusion method and the MIC determination assays according to the EUCAST (ref. [71] and [72]) and CLSI (ref. [53] and [73]) recommendations. Assessment of bactericidal (MBC) and fungicidal (MFC) activities was performed according to the CLSI recommendations.[54,74] […] The new benzosiloxaboroles were dissolved in DMSO (Sigma).
Considering that the MDR efflux pumps often contribute to Gram-negative rod resistance, the MIC values of studied agents, with or without the pump inhibitor, PAβN (20 μg mL^−1) (Sigma), were determined.[75] The MIC was determined using Mueller–Hinton II broth medium (MHB) (Becton Dickinson) by the broth microdilution method, according to the CLSI guideliness.[53] To minimize the influence of PAβN on the destabilization of bacterial cell covers, the tests were conducted in the presence of 1 mM MgSO4 (Sigma).[76] At least a 4-fold reduction in the MIC value after the addition of PAβN was considered significant.[56,77]

The subject of a further series is S. aureus NMI 664 K MRSA. Description: Antibacterial activity against clinical MRSA: MIC/MBC. The series is classed as cell-based. Conditions: Staphylococcus aureus. Here is the method:
(§1) Direct antimicrobial activity was determined against the following standard strains: (1) Gram-positive cocci: methicillin-sensitive Staphylococcus aureus ATCC 6538P (MSSA), methicillin-resistant S. aureus subsp. aureus ATCC 43300 (MRSA), S. epidermidis ATCC 12228, Enterococcus faecium ATCC 6057, E. faecalis ATCC 29212, Bacillus subtilis ATCC 6633; (2) Gram-negative bacteria from Enterobacteriales order: Klebsiella pneumoniae ATCC 13883, Escherichia coli ATCC 25922, Enterobacter cloacae DSM 6234, Proteus mirabilis ATCC 12453, Serratia marcescens ATCC 13880; (3) Gram-negative non-fermentative rods: Acinetobacter baumannii ATCC 19606, Pseudomonas aeruginosa ATCC 27853, Stenotrophomonas maltophilia ATCC 12714, S. maltophilia ATCC 13637, Burkholderia cepacia ATCC 25416, Bordetella bronchiseptica ATCC 4617; (4) yeasts: Candida albicans ATCC 90028, C. krusei ATCC 6258, C. parapsilosis ATCC 22019, C. tropicalis (Castellani) Berkhout ATCC 750, C. tropicalis IBA 171, C. guilliermondii IBA 155, and Saccharomyces cerevisiae ATCC 9763. Moreover, 5 clinical strains of methicillin-resistant S. aureus were also included: NMI 664 K, NMI 1576 K, NMI 1712 K, NMI 1991 K, and NMI 2541 K. All strains were stored at −80 °C. Prior to testing, each bacterial strain was subcultured twice on tryptic soy agar TSA (bioMerieux) medium and yeast strains on Sabouraud dextrose agar (bioMerieux) for 24–48 h at 30 °C to ensure viability. The antimicrobial activity was evaluated as previously described[26] by the disc-diffusion method and the MIC determination assays according to the EUCAST (ref. [71] and [72]) and CLSI (ref. [53] and [73]) recommendations. Assessment of bactericidal (MBC) and fungicidal (MFC) activities was performed according to the CLSI recommendations.[54,74] The following reference agents were used: fluconazole (in the case of fungi), linezolid (for Gram-positive bacteria), and nitrofurantoin (for Gram-negative rods). The new benzosiloxaboroles were dissolved in DMSO (Sigma).

The subject of series [1] is S. aureus NMI 1576 K MRSA. The series is described as above. The series is classed as cell-based. The settings on record: Staphylococcus aureus. Here is the method: as §1
Series [2] concerns S. aureus NMI 1991 K MRSA. Described as above. Conditions: Staphylococcus aureus. The series is classed as cell-based. Here is the method:
as §1

Series [3] has as its system S. aureus NMI 1712 K MRSA. The series is described as above. Type of series: cell-based. Conditions: Staphylococcus aureus. Here is the method: as §1
Series [4] concerns S. aureus NMI 2541 K MRSA. The description is as above. The series is classed as cell-based. The settings on record: Staphylococcus aureus. Here is the method:
as §1

A short description of series [5]: Determination of acidity constants (pKa) by potentiometric titration. Here is the method:
0.1 M NaOH in H2O/MeOH (1 : 1 v/v).
The acidity constants of benzosiloxaboroles 1e, 2e, 6, 20 and 22–24 were determined by standard pH titration with 0.05 M aq. NaOH. The measurements were performed using a thermostated (25.0 °C) glass vessel equipped with a magnetic stirrer and a 10 mL burette. Prior to the measurement, the pH glass electrode was calibrated using borax and phosphate buffers. A solution of the analyzed compound (ca. 20–40 mg) in a mixture of MeOH/H2O (v/v 1 : 1, 30 mL) was titrated until the pH of the solution exceeded the value of 12.0.

Setting [6] is: MRSA, read-out: MBC (first MBC where Eagle effect).
Where [7] appears, read: MRSA, read-out: second MBC (Eagle effect).

A word on the MBC: it is the lowest tested concentration that kills the bacteria rather than only halting them. Usually MIC stands for the least concentration at which growth counts as inhibited. The term pKa denotes the negative logarithm of the acid dissociation constant. Low readings indicate a stronger acid or weaker base, high ones a weaker acid or stronger base.

Converted amounts (≈) assume the structure as drawn. Like-named read-outs stand apart in the source and are kept apart here.

As for `C[Si]1(C)OB(O)c2cc(F)c(SCCS(=O)(=O)c3ccccc3)c(F)c21` [Compound 20, 5,7-Difluoro-1,1-dimethyl-6-((2-(phenylsulfonyl)ethyl)thio)benzo[c][1,2,5]oxasilaborol-3(1H)-ol], the “efflux assay result (MIC with PAβN)” value in the series on Gram-negative rods is listed as “actively extruded from bacterial cells”. For the same compound, the MBC in the series on S. aureus NMI 664 K MRSA (NMI 664 K MRSA, read-out: MBC (first MBC where Eagle effect)) was 12.5 µg/mL (≈ 30.2 µM); with S. aureus NMI 664 K MRSA (NMI 664 K MRSA, read-out: second MBC (Eagle effect)), 400 µg/mL (≈ 965 µM); in series [1] (NMI 1576 K MRSA, read-out: MBC (first MBC where Eagle effect)), 12.5 µg/mL (≈ 30.2 µM); in series [1] (NMI 1576 K MRSA, read-out: second MBC (Eagle effect)), 400 µg/mL (≈ 965 µM); in series [2] (NMI 1991 K MRSA, read-out: MBC (first MBC where Eagle effect)), 12.5 µg/mL (≈ 30.2 µM); in series [2] (NMI 1991 K MRSA, read-out: second MBC (Eagle effect)), 400 µg/mL (≈ 965 µM). Besides, the MBC in series [3] (NMI 1712 K MRSA, read-out: MBC (first MBC where Eagle effect)) turned out to be 12.5 µg/mL (≈ 30.2 µM); in series [3] (NMI 1712 K MRSA, read-out: second MBC (Eagle effect)), 400 µg/mL (≈ 965 µM); in series [4] (NMI 2541 K MRSA, read-out: MBC (first MBC where Eagle effect)), 25 µg/mL (≈ 60.3 µM); in series [4] (NMI 2541 K MRSA, read-out: second MBC (Eagle effect)), 400 µg/mL (≈ 965 µM). Moreover, the MIC was found to be 6.25 µg/mL (≈ 15.1 µM) in the series with S. aureus NMI 664 K MRSA (NMI 664 K MRSA, read-out: MIC); 6.25 µg/mL (≈ 15.1 µM) in series [1] (NMI 1576 K MRSA, read-out: MIC); 6.25 µg/mL (≈ 15.1 µM) in series [2] (NMI 1991 K MRSA, read-out: MIC); 6.25 µg/mL (≈ 15.1 µM) in series [3] (NMI 1712 K MRSA, read-out: MIC); 6.25 µg/mL (≈ 15.1 µM) in series [4] (NMI 2541 K MRSA, read-out: MIC). The pKa in series [5] (MeOH/H2O (1:1 v/v) solution) was determined as 5.7.
In the case of `CCOP(=O)(OCC)Sc1c(F)cc2c(c1F)[Si](C)(C)OB2O` [Compound 24, S-(5,7-Difluoro-3-hydroxy-1,1-dimethyl-1,3-dihydrobenzo[c][1,2,5]oxasilaborol-6-yl) O,O-diethyl phosphorothioate], the MIC against S. aureus NMI 664 K MRSA (MRSA) was determined as 6.25 µg/mL (≈ 16.4 µM); in series [1] (MRSA) it was 6.25 µg/mL (≈ 16.4 µM); in series [2] (MRSA), 12.5 µg/mL (≈ 32.7 µM); in series [3] (MRSA) it was 12.5 µg/mL (≈ 32.7 µM); in series [4] (MRSA), 12.5 µg/mL (≈ 32.7 µM). Besides, the minimum bactericidal concentration (MBC) is 25 µg/mL (≈ 65.4 µM) with S. aureus NMI 664 K MRSA (setting [6]); over 400 µg/mL with S. aureus NMI 664 K MRSA (setting [7]); 12.5 µg/mL (≈ 32.7 µM) in series [1] (setting [6]); 400 µg/mL (≈ 1050 µM) in series [1] (setting [7]); 12.5 µg/mL (≈ 32.7 µM) in series [2] (setting [6]); over 400 µg/mL in series [2] (setting [7]). Also, the MBC in series [3] (setting [6]) was 25 µg/mL (≈ 65.4 µM); in series [3] (setting [7]), over 400 µg/mL; in series [4] (setting [6]), 12.5 µg/mL (≈ 32.7 µM); in series [4] (setting [7]), over 400 µg/mL. The same compound came in with a pKa in series [5] of 4.9.
